Reference: patent US20230372361A1, “USE OF OXYGENATED CHOLESTEROL SULFATES FOR TREATING INFLAMMATORY CONDITIONS” (Durect Corporation, priority 2020, published 2023)
Like-named read-outs stand apart in the source and are kept apart here.

Columns and labels:
[1] = rat, in vivo, po, 75 mg/kg
Method: Pancreas and liver concentrations ranged from 23,500 ng equiv./g to 28,100 ng equiv./g. Uveal tract and brain concentrations were lowest relative to the other tissues and were approximately 1000 ng equiv./g. Skin, thymus, prostate, and pituitary tissue concentrations were <3000 ng equiv./g. Remaining tissues had concentrations between 3600 ng-equiv./g and 10,700 ng equiv./g. […] As calculated using AUClast, the tissue:plasma ratios were highest for the small intestine (wall, 15.4) followed by the liver and adrenal gland at 6.96 and 6.64, respectively. High liver and small intestine concentrations are consistent with oral administration and biliary (fecal) excretion.

[2] = Metabolite profiling of plasma and feces after oral dose (radio-HPLC, HPLC/MS); set-up: species or system rats; settings: Sprague Dawley, rat, in vivo, 75 mg/kg
Method: Radiolabeled components in plasma and feces extracts were profiled and identified using radio-high performance liquid chromatography (HPLC) and high performance liquid chromatography/mass spectrometry (HPLC/MS) methods.
Plasma pools were prepared for Group 1 (75 mg/kg, [14C]-25HC3S) samples collected at 2, 4, and 6 hours post-dose. […] One metabolite M29 was identified as 25-hydroxycholesterol with 37% ROI and a concentration of 1233 ng-equiv./g.
Feces pools were prepared for Group 2 (75 mg/kg, [^14C]-25HC3S) samples collected from 0 to 24, 24 to 48, 48 to 72, 72 to 96, 96 to 120, 120 to 144, and 144 to 168 hours post-dose. A total of eleven metabolites were identified. None of the metabolites were present at ≥5% of dose. Metabolites present at 2-5% of dose were M1(4.5% of total dose and 1%-69% ROI), M3 (4.6% of total dose and 1%-44% ROI), M4 (2.0% of total dose and 0%-10% ROI), M8 (3.1% of total dose and 1%-46% ROI), M29 (1.9% of total dose and 0%-2% ROI), and M30 (3.3% of total dose and 0%-5% ROI).

[3] = set-up: species or system rats; settings: Sprague Dawley, rat, in vivo, po, 75 mg/kg
Huh-7 cells = test: Real-time RT-PCR of key gene expression; type: cell-based, human; settings: 6.25-50 μM, 1-8 hours
Method: FIGS. 3A-3D. Expression of key genes related to signaling pathways. […] Key Genes and their targeting genes expression were determined by RT-PCR analysis. […] Each sample, 2 was sent to […], Inc. (Hopkinton, MA) for analysis of global methylation bisulfite sequencing. The same samples, 6 μg, were sent to Novogene Co., Ltd (Tianjin, China) for analysis of whole genome bisulfite sequencing (WGBS). Total RNA was isolated using the Promega SV total RNA isolation system (Madison, WI) with DNase treatment. […] Real-time RT-PCR was performed using SYBR Green as the indicator on ABI 7500 Fast Real-Time PCR System (Applied Biosystems, Foster City, CA). Amplifications of β-actin or GAPDH were used as internal controls. Relative messenger RNA (mRNA) expression was quantified with the comparative cycle threshold (Ct) method using the primer set shown in Table 1.1 and was expressed as 2^-ΔΔct.

[4] = Excretion mass balance, single intravenous dose; type: in vivo, male Sprague Dawley rats; settings: iv 10 mg/kg; over 168 hours
Method: (§1) Nine male Sprague Dawley rats (Group 1) were designated for the pharmacokinetic phase, 3 male Sprague Dawley rats (Group 2) for the excretion mass balance phase, and 7 male Sprague Dawley rats (Group 3) and 9 male Long Evans rats (Group 4) for the tissue distribution phase. All animals received a single intravenous dose of [^14C]-25HC3S at 10 mg/kg and a target radioactivity of 225 μCi/kg. Blood samples were collected from all Group 1 animals at approximately 0.083, 0.25, 0.5, 1, 2, 4, 8, 12, 24, 48, and 72 hours post-dose. Urine and feces were collected from all Group 2 animals periodically through 168 hours post-dose. […] Following blood collection, animals were euthanized by CO2 inhalation and carcasses frozen in a dry ice/hexane bath for processing by quantitative whole body autoradiography. Whole blood, plasma, urine, feces, cage rinse, and cage wash were analyzed for total radioactivity by liquid scintillation counting.

[5] = Metabolite profiling of plasma, urine, feces after intravenous dose (HPLC radiodetection, MS); type: in vivo, rats; settings: iv 10 mg/kg
Method: Plasma pools were made from Group 1 rats at the 0.083, 0.25, 0.5, and 1-hour collection time points.
Urine pools were prepared for Group 2 at 0 to 6 and 6 to 12 hours post-dose. […] Four metabolites present at <10% relative observed intensity in at least 1 sample were M7 (<5% relative observed intensity), M16 (<3% relative observed intensity), M19 (<6% relative observed intensity), and M25 (<5% relative observed intensity).
Feces pools were prepared for Group 2 at 0 to 12, 12 to 24, and 24 to 48 hours post-dose.

[6] = Tissue distribution by quantitative whole body autoradiography, intravenous; type: in vivo, male Sprague Dawley rats; settings: iv 10 mg/kg
Method: as §1

[7] = Plasma pharmacokinetics of radioactivity, single intravenous dose; type: in vivo, male Sprague Dawley rats; settings: single intravenous (bolus) dose 10 mg/kg; total radioactivity
Method: as §1

[8] = Tissue distribution by quantitative whole body autoradiography, intravenous, pigmented animals; type: in vivo, male Long Evans rats; settings: iv 10 mg/kg
Method: as §1

[9] = set-up: species or system rats; settings: rat, in vivo, po, 75 mg/kg
Method: The terminal elimination phase T1/2 was 27.3 hours.

With `C[C@H](CCCC(C)(C)O)[C@H]1CC[C@H]2[C@@H]3CC=C4C[C@@H](OS(=O)(=O)O)CC[C@]4(C)[C@H]3CC[C@]12C` [25HC3S, 25-hydroxycholesterol-3-sulfate] the “tissue:plasma ratio, adrenal gland” value ([1]; male, Sprague Dawley) was 6.64, the “tissue:plasma ratio, liver” value ([1]; male, Sprague Dawley) was 6.96 and the “tissue:plasma ratio, small intestine (wall)” value ([1]; male, Sprague Dawley) was 15.4. For the same compound, the “Cmax in small intestine (wall)” value [1] was 424,000 ng equiv./g, the “Cmax in stomach (wall)” value [1] was 204,000 ng equiv./g and the “tissue concentrations by 168 hours post-dose” value [1] was “near or below the quantitation limit in all tissues except adrenal gland and liver”. For the same compound, the “tissue distribution of parent and/or metabolites” value [1] was “broadly distributed and detected by quantitative whole body autoradiography in all tissues except the eye (lens)”, the “whole blood AUClast” value [1] was 127,000 h·ng equiv./g and the ROI in feces [2] was 0-88%. For the same compound, the amount in feces [2] was 71.1 % of total dose, the “dose recovered in urine, feces, and cage rinse” value [3] was “approximately 94.5 % of the dose” and the “decrease of FAS gene expression” value (Huh-7 cells) was roughly 90%. For the same compound, the “decrease of HMGR gene expression” value (Huh-7 cells) was roughly 90%, the “increase of CREB5 expression” value (Huh-7 cells) was “up to 20 fold” and the “increase of DUSP8 expression” value (Huh-7 cells) was 5 fold. For the same compound, the “increase of PGC1A expression” value (Huh-7 cells) was 12 fold, the “dose recovered in urine, feces, and cage rinse” value [4] was “approximately 100.2 % of the dose” and the “recovered radioactivity in feces” value [4] was 83.0%. For the same compound, the amount in feces ([5]; pools 0 to 48 hours post-dose) was 2 % of dose, the “share of the exposure (AUC) to 25HC3S related radioactivity in plasma” value ([5]; up to 1 hour post-dose) was “approximately 54%” and the “plasma:whole blood AUClast ratio” value [6] was 0.79. For the same compound, the “tissue concentrations by 168 hours post-dose” value [6] was “below quantitation limit in all tissues except adrenal gland, harderian gland, liver, and small intestine”, the “tissue distribution of parent and/or metabolites” value ([6]; Group 3) was “broadly distributed and detected by quantitative whole body autoradiography in all tissues except the eye (lens)” and the “tissue:plasma ratio, liver” value ([6]; calculated using AUClast) was 11.4. For the same compound, the “tissue:plasma ratio, small intestine (wall)” value ([6]; calculated using AUClast) was 7.44, the AUClast in liver ([6]; derived radioactivity) was ≤ 364,000 h·ng/g and the “mean plasma C0” value [7] was 25,900 ng-equiv./g. The “binding to pigmented or non-pigmented skin or the uveal tract” value [8] was “no difference”, the “plasma or whole blood concentrations versus Sprague Dawley rats” value ([8]; first 168 hours post-dose) was “no substantial difference” and the “plasma Cmax” value [9] was 3800 ng equiv./g.
